As usually defined, the IC50 is the concentration needed to halve the response being measured.

Where “and” joins values, the source holds several entries; their conditions need not be identical. Equal values may be shown once.

Consider one compound from PMC4383003, “Transfer hydrogenation catalysis in cells as a new approach to anticancer drug design” (Nature Communications, 2015).

The nature of data set [1]: pKa* of aqua adducts of the complexes. The data set is classed as physicochemical. Conditions: pKa value determined in deuterated solvent. The text has this:
Table 1 pKa* values for aqua adducts of catalysts 1–4 (and 8 for comparison) and turnover frequencies for transfer hydrogenation of NAD^+ using formate. | column: pKa*

Data set [2] has as its system A2780 ovarian cancer cells. Nature of the data set: Cell viability on co-administration of Ru complexes (1/3 x IC50) with formate or acetate. The data set is classed as cell-based, human. Conditions: for Cell viability percentages / Cell viability: A2780, complex 1/3 x IC50, 24 h. On the procedure: Cell viability assays were carried out with complexes 1–8 in A2780 ovarian cancer cells. These experiments were carried out as described above with the following modifications: a fixed concentration of each Ru complex equal to 1/3 × IC50 was used in co-administration with three different concentrations of sodium formate or sodium acetate (0.5, 1.0 and 2.0 mM). To prepare the stock solution of the drug, the complex was dissolved in 5% dimethylsulfoxide and diluted in a 1:1 mixture of 0.9% saline:cell culture medium. This stock was further diluted using RPMI-1640 until working concentrations were achieved. Separately, stock solutions of sodium formate or sodium acetate were prepared in saline. The complex and formate were added to each well independently, but within 5 min of each other.
Supplementary Table 7: Percent cell viability of A2780 ovarian cancer cells exposed to equipotent concentrations of ruthenium complexes 1-3 and 5-8 (1/3 x […]
The experiments included 48 h of pre-incubation and 72 h of drug recovery, both in drug-free medium at 310 K in a 5% CO2 humidified atmosphere. All the experiments were performed as duplicates of triplicates in independent experiments and the error bars were calculated as the standard deviation from the mean.
Supplementary Table 11: Cell viability (%) of A2780 ovarian cancer cells exposed […]
administered with different concentrations of sodium acetate (0, 0.5, 1 and 2 mM).
The experiments involved 48 h of pre-incubation and 72 h of drug recovery, both in […]
Cell viability percentages (%)
Complex Acetate concentration (mM)

Data set [3] relates to A2780 ovarian cancer cells. Briefly: IC50 of complex 2 on co-administration with formate. The data set is classed as cell-based, human. Conditions: A2780, formate 0 mM. On the procedure: The antiproliferative activity towards A2780 ovarian cancer cells of complex 2 when co-administered with 2 mM sodium formate was determined. These experiments were performed as described above, using a fixed concentration of formate and variable concentrations of the Ru complex. The SRB assay was used to determine cell viability. IC50 values were determined as duplicates of triplicates in two independent sets of experiments and their s.d. were calculated.
Supplementary Table 8: Antiproliferative activity of complex 2 in A2780 ovarian cancer cells when co-administered with different concentrations of sodium formate (0, 0.5, 1 and 2 mM) and amount of Ru accumulated by the cells. All the experiments were performed as duplicates of triplicates in independent experiments and the error bars were calculated as the standard deviation from the mean.
Formate concentration (mM)

In data set [4] the test system is NAD^+/NADH ratio in A2780 cells. Briefly: NAD+/NADH determination in cells. Type of data set: cell-based, human. As to the method: Experiments to determine the NAD^+/NADH ratio in A2780 ovarian cancer cells exposed to complex 2 were carried out using the NAD^+/NADH assay kit from Abcam (ab65348) according to the manufacturer’s instructions. Briefly, A2780 cells were seeded in six-well plates at a density of 1.0 × 10^6 cells per well. […] These concentrations of sodium formate were also used on their own as a second set of negative controls. Drug exposure was allowed for 24 h, after which all supernatants were removed by suction and wells were washed with PBS. Cells were treated with trypsin, detached and counted before being pelleted by centrifugation. Cell pellets were extracted using the NAD/NADH extraction buffer and filtered using a 10-kDa-molecular weight cutoff filter. Samples were split into two, the first half was used to determine total NADt (NAD+NADH), and the second half to determine NADH after heating the samples at 333 K for 30 min. The absorbance at 450 nm was normalized against the protein content in each sample determined using the Bradford assay.
Experiments to determine the time dependence of the NAD/NADH ratio in A2780 ovarian cancer cells exposed to complex 2 were carried out using the NAD^+/NADH assay kit as described above with the following modifications.

Data set [5] deals with A2780 cells. Nature of the data set: ROS determination by flow cytometry. The data set is classed as cell-based, human. As to conditions: A2780, complex 2 and 2 mM sodium formate, 24 h. On the procedure:
Flow cytometry analysis of total induction of ROS in A2780 cells caused by exposure to complex 2 and sodium formate was carried out using the Total ROS detection kit (Enzo Life Sciences) according to the supplier’s instructions. Briefly, 1.0 × 10^6 A2780 cells per well were seeded in a six-well plate. […] After 24 h of drug exposure, supernatants were removed by suction and cells were washed and harvested. Staining was achieved by resuspending the cell pellets in buffer containing the green fluorescent reagent. Cells were analysed in a Becton Dickinson FACScan Flow Cytometer using Ex/Em: 490/525 nm for the oxidative stress detection. Data were processed using Flowjo software. The experiment included cells treated with pyocyanin for 30 min as positive control.
On the technique in general: In flow cytometry, cells or beads pass a laser one at a time.

In data set [6] the test system is A2780 cells. Nature of the data set: Induction of apoptosis (Annexin V-FITC/PI flow cytometry). Type of data set: cell-based, human. As to conditions: A2780, complex 2 and 2 mM sodium formate, 24 h. On the procedure: Flow cytometry analysis of apoptosis in A2780 cells caused by exposure to complex 2 and sodium formate were carried out using the Annexin V-FITC Apoptosis Detection Kit (Sigma Aldrich) according to the manufacturer’s instructions. […] Cells were harvested using trypsin and stained using PI/Annexin V-FITC. After staining, cell pellets were analysed in a Becton Dickinson FACScan Flow Cytometer. For positive-apoptosis controls, A2780 cells were exposed for 2 h to staurosporine (1 μg ml^−1). Cells for apoptosis studies were used with no previous fixing procedure as to avoid nonspecific binding of the annexin V-FITC conjugate.

For `Cc1ccc(C(C)C)cc1.Cc1ccc(S(=O)(=O)[N-]CCN)cc1.[Cl-].[Ru+2]` [Complex 2, [(p-cym)Ru(TsEn)Cl]], the “pKa*” value in data set [1] is recorded as 9.78±0.06. Moreover, the Cell viability percentages is reported as 70.8 ± 0.6% in data set [2] (acetate 0 mM), 69.4 ± 0.9% in data set [2] (acetate 0.5 mM), 68.9 ± 0.3% in data set [2] (acetate 1 mM) and 67.1 ± 0.6% in data set [2] (acetate 2 mM). The Cell viability is 49.7 ± 0.8% in data set [2] (formate 0.5 mM); 38.2 ± 0.6% in data set [2] (formate 1 mM); 1.5 ± 0.1% and ~1% in data set [2] (formate 2 mM). In addition, the “decrease in cell survival” value in data set [2] (A2780, formate increased from 0 to 2 mM) is on record as “ca. 50 fold”. Moreover, the IC50 in data set [3] stood at 13.6 ± 0.6 µM. For the same compound, the “apparent TOF (TOFap) for conversion of NAD+ to NADH in cells” value in data set [4] (A2780, 4.5 μM complex 2 and 2 mM sodium formate, 0-24 h) was found to be 0.19 ± 0.01 h⁻¹. Besides, the “NAD+/NADH ratio” value in data set [4] (A2780, complex 2, 24 h, 2 mM formate) was determined as 1.1; in data set [4] (A2780, complex 2, 24 h, no formate), 4.5; in data set [4] (A2780, complex 2 and 2 mM sodium formate, after 12 h), 0.74; in data set [4] (A2780, complex 2 and 2 mM sodium formate, after 24 h), 0.98; in data set [4] (A2780, complex 2 and 2 mM sodium formate, t=4 h), 0.83. Further, the “levels of reactive oxygen species (ROS) in treated cells” value with A2780 cells [5] is “comparable to those arising from treatment with N-acetyl-L-cysteine”. For the same compound, in the data set with A2780 cells [6], the induction of apoptosis result is “no population of cells in either of these two stages of apoptosis was detected”.
